Measured values from patent US20130177904A1, “ARNT ISOFORM 3 AS A PREDICTOR OF AMINOFLAVONE RESPONSIVENESS IN CANCER CELLS” (UNIVERSITY OF MARYLAND, BALTIMORE, priority 2010, published 2013).

Experiments:
Hst578t = test: Cell Death Detection ELISA PLUS apoptosis assay; format: cell-based, Human; settings: 1 μM AF, Hst578t listed as AF insensitive, 24 h or 48 h, FIG. 2A
Procedure: (§1) To determine the induction of apoptosis, the Cell Death Detection ELISA^PLUS Assay (Roche Cat. No. 11774425001), which determines the degree of cytoplasmic mono- and oligonucleosomes, was employed as described by the manufacturer. Briefly, breast cancer cells (5,000 cells for MCF-7; 2,000 cells for MDA-MB-231; 15,000 cells for T47D; 15,000 cells for MDA-MB-468; 5,000 cell for Hst578) were plated on 96 well plates and treated the next morning with or without or 1 uM AF for 24 h or 48 h. Cells were then concentrated by centrifugation at 200 g for 10 min at room temperature and the supernatant was discarded. Cells were lysed, and cytoplasmic fractions containing fragmented DNA were transferred to streptavidin-coated microtiter plates preincubated with a biotinylated monoclonal anti-histone antibody. The amount of fragmented nucleosomes bound to anti-histone antibody was evaluated by peroxidase-conjugated monoclonal antibody using ABTS (2,2-azino-di[3-ethylbenzthiazoline sulfonate-6-diammonium salt]) as a substrate, and read in a microplate reader at 405 nm. Non-treated cells were employed as controls.

MDA-MB-231 = test: Cell Death Detection ELISA PLUS apoptosis assay; format: cell-based, Human; settings: 1 μM AF, MDA-MB-231, 24 h or 48 h, FIG. 2A
Procedure: as §1

## Cc1c(F)c(N)c2c(=O)cc(-c3ccc(N)c(F)c3)oc2c1F [AF, 5-amino-2-(4-amino-3-fluorophenyl)-6,8-difluoro-7-methylchromen-4-one]
Hst578t
  increase in cytoplasmic nucleosomes: < 2 fold
MDA-MB-231
  increase in cytoplasmic nucleosomes: < 2 fold
